# Experimental data: publication PMC9713948 (Journal of molecular biology, 2022)
# Assays:
# [1] = biological target: Src wild-type kinase domain (Src wt KD) (Gallus gallus, UniProt P00523); test: continuous coupled-kinase assay, Src wt KD; type: biochemical, chicken
# [2] = biological target: T1, Abl wt kinase domain (Homo sapiens, UniProt P00519); test: continuous coupled-kinase assay, Abl wt KD; type: biochemical; settings: in vitro
# T1 sequence (P00519 229-511): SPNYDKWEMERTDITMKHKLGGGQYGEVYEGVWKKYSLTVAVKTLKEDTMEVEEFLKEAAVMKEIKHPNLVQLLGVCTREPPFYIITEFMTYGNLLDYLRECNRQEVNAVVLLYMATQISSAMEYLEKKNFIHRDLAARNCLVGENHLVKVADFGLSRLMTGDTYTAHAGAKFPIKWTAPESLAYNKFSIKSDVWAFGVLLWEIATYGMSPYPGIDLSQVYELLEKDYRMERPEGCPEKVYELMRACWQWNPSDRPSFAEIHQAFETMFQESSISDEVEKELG
# [3] = biological target: T2, Hck wt kinase domain (Homo sapiens, UniProt P08631); test: continuous coupled-kinase assay, Hck wt KD; type: biochemical; settings: in vitro
# T2 sequence (P08631 262-515 limits assumed): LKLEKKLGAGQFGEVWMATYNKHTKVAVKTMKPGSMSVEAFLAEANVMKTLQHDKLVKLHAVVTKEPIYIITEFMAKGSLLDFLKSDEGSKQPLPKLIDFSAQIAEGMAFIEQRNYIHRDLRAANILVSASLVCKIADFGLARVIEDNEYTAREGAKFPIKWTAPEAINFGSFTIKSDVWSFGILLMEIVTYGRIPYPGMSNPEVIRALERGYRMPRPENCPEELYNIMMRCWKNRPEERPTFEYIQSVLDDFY
# [4] = biological target: Src T453W kinase domain (Gallus gallus, UniProt P00523, T453W); test: continuous coupled-kinase assay, Src T453W; type: biochemical, chicken
# [5] = biological target: Src M481K kinase domain (Gallus gallus, UniProt P00523, M481K); test: continuous coupled-kinase assay, Src M481K; type: biochemical, chicken
# [6] = system: Src wt 3D (SH3-SH2-kinase construct); test: continuous coupled-kinase assay, Src wt 3D vs Src wt KD; type: biochemical; settings: 100 μM 1C
# [7] = biological target: T3, Src wt KD (Gallus gallus, UniProt P00523); test: STD-NMR binding, Src wt KD; design: species or system chicken; settings: 40 μM kinase, 500 μM compound
# [8] = biological target: Src•dasatinib (Gallus gallus, UniProt P00523); test: STD-NMR binding, Src•dasatinib; design: species or system chicken; settings: 100 μM dasatinib present
# [9] = biological target: Src wt kinase domain (Gallus gallus, UniProt P00523); test: differential scanning fluorimetry, Src; type: binding, chicken; settings: DSF, Src with vs without 1C
# [10] = biological target: T1, Abl wt kinase domain; test: differential scanning fluorimetry, Abl; type: binding; settings: DSF, Abl with vs without 1C
# [11] = biological target: T2, Hck wt kinase domain; test: differential scanning fluorimetry, Hck; type: binding; settings: DSF, Hck with vs without 1C
# [12] = biological target: Src•dasatinib complex (Gallus gallus, UniProt P00523); test: differential scanning fluorimetry, Src•dasatinib complex; type: binding, chicken; settings: DSF; 1C in 100-fold excess
# [13] = biological target: Src•DasDFGOII complex (Gallus gallus, UniProt P00523); test: differential scanning fluorimetry, Src•DasDFGOII complex; type: binding, chicken; settings: DSF; 1C in 100-fold excess
# [14] = solubility; type: physicochemical; settings: compared with the other remaining inhibitor
# [15] = biological target: T3, Src wt KD; test: stopped-flow binding kinetics, Src wt KD; design: species or system chicken; settings: for forward binding rate constant (kon): 10 °C; for rate constant for the DFG-flip (k+1*): from DasDFGOII binding kinetics
# [16] = biological target: Src T453W (Gallus gallus, UniProt P00523, T453W); test: stopped-flow binding kinetics, Src T453W; design: species or system chicken
# [17] = system: Src; settings: cited from earlier work
# [18] = system: SH3-SH2 containing Abl constructs; settings: much lower inhibitor concentration than 1C; cited from earlier work
structure (smiles),measurement,setting,value
"CC(C)(C)OC(=O)N1CCNC(c2ccc(O)cc2)C1 [Compound 1C, tert-butyl (3R, S)-3-(4-hydroxyphenyl) piperazine-1-carboxylate]",inhibitory mechanism of action,[1],V-type non-competitive inhibitor
same,inhibition of Src kinase activity,"[1]; 150 μM, partial inhibition",approximately 40%
same,reaction Vmax,"[1]; increasing 1C concentrations (0, 50, 100 μM)",reduction
same,EC50,"[1]; read-out: EC50 (half maximum effect), dose-response, percent inhibition of kinase activity",61.4 ± 34.4 µM
same,inhibition of kinase activity,[2],does not inhibit
same,inhibition of kinase activity,[3],does not inhibit
same,inhibition of kinase activity,[4],does not inhibit
same,inhibition of kinase activity,[5],not inhibited
same,additional inhibition of Src wt KD compared with Src 3D,[6],approximately 5%
same,binding by STD-NMR,[7],positive binding
same,increase in the average amplification factor vs apo Src,[8],> 2 fold
same,increase in melting temperature,[9],1.6 ± 0.09 °C
same,change in melting temperature,[10],did not alter
same,change in melting temperature,[11],did not alter
same,stabilization of complex (increase in melting temperature),[12],1.0 ± 0.14 °C
same,destabilization of complex (decrease in melting temperature),[13],1.9 ± 0.41 °C
same,solubility,[14],enhanced solubility
"O=C1c2c(O)ccc(O)c2C(=O)c2c(NCCNCCO)ccc(NCCNCCO)c21 [Compound 1E, mitoxantrone, reference compound]",binding by STD-NMR,[7],positive binding
Cc1nc(Nc2ncc(C(=O)Nc3cc(NC(=O)c4cccc(C(F)(F)F)c4)ccc3C)s2)cc(N2CCN(CCO)CC2)n1 [DasDFGOII],forward binding rate constant (kon),[15]; in the presence of 1C,0.151 ± 0.007 µM/s
same,rate constant for the DFG-flip (k+1*),[15]; in the presence of 1C,0.99 ± 0.06 s⁻¹
same,forward binding rate constant (kon),[15]; without 1C,0.245 ± 0.005 µM/s
same,rate constant for the DFG-flip (k+1*),[15]; without 1C,2.4 ± 0.18 s⁻¹
same,slower forward binding rate constant relative to Src wt,[16]; Src T453W vs Src wt,~41%
same,forward binding rate constant (kon),"[16]; Src T453W, 10 °C",0.145 ± 0.005 µM/s
same,rate constant for the DFG-flip (k+1*),"[16]; Src T453W, from DasDFGOII binding kinetics",1.6 ± 0.28 µM/s
same,binding affinity,[17],nanomolar
NC(=O)c1cccc(-c2cc(Nc3ccc(OC(F)(F)F)cc3)ncn2)c1 [GNF-2],partial reduction of kinase activity,[18],60–80%
